US20050267182A1, “Urea derivatives as FLT-3 modulators” (Ambit Biosciences Corporation, priority 2003, published 2005)

Key:
MV4,11 cells = assay: FLT3 assay using MV4,11 cells (cellular proliferation, MTS); type: cell-based, human; conditions: cell assay code CS0001
Method in brief: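 MV4,11 AML cells, […] switch to DMEM/10% FBS overnight, plated at 10,000 cells/well and exposed to serially diluted compounds in duplicate for 3 days at 37° C., 5% CO2. Proliferation read by MTS added for 2 h.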

CS0002 = assay: Cell Assay: CS0002; type: cell-based; conditions: cell assay code CS0002
CS0005 = assay: Cell Assay: CS0005; type: cell-based; conditions: cell assay code CS0005
FLT3 = molecular target: T1, FLT3 (Homo sapiens, UniProt P36888); assay: Binding constant (Kd) measurement, phage-displayed kinase competition binding assay; conditions: for Binding Assay: FLT3(DKIN): FLT3(DKIN) construct; for Binding Assay: FLT3(JMminus): FLT3(JMminus) construct
T1 construct: FLT3(DKIN); made in house
T1 sequence (P36888 610-943 limits assumed): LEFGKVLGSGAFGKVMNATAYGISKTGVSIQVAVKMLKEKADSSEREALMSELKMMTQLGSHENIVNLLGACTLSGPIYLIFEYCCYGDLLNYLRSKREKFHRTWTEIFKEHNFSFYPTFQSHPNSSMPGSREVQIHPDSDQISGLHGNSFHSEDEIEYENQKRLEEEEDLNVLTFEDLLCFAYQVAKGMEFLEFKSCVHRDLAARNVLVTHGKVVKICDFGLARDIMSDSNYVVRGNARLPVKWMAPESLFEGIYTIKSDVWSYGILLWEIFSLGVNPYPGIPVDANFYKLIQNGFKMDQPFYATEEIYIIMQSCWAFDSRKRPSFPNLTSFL
Text: Binding Constant (Kd) Measurements for Small-Molecule-Kinase Interactions
The term “ND” represents non-determined values.

Structure (SMILES) | Cell Assay: CS0001:IC50 (MV4,11 cells) | Cell Assay: CS0002:IC50 (CS0002) | Cell Assay: CS0005:IC50 (CS0005) | Binding Assay: FLT3(DKIN) (FLT3) | IC50 (CS0002) [µM] | IC50 (MV4,11 cells; Homo sapiens, MV4-11) [µM] | Binding Assay: FLT3(JMminus) (FLT3)
CC(C)(C)c1cc(NC(=O)Nc2ccc(CCc3ccc(N)cc3)cc2)no1 [Compound A3] | + + + + | + + | + + + + | + + + + | – | – | –
CC(C)(C)c1cc(NC(=O)Nc2ccc(CCc3ccccc3)cc2)no1 [Compound A15] | + + + + | + + | + + + | + + + + | – | – | –
CC(C)(C)c1cc(NC(=O)Nc2ccc(OCCCc3ccncc3)cc2)no1 [Compound G1, 1-(4-(3-(pyridin-4-yl)propoxy)phenyl)-3-(5-tert-butylisoxazol-3-yl)urea] | + + + + | – | + + + + | + + + + | > 10 | – | –
CC(C)(C)c1cc(NC(=O)Nc2ccc(OCc3ccc4ccccc4c3)cc2)no1 [Compound G3] | + + + + | + + | + + + + | + + + + | – | – | –
CC(C)(C)c1cc(NC(=O)Nc2ccc(OCc3ccccc3Cl)cc2)no1 [Compound G10] | + + + + | + + | + + + | + + + + | – | – | –
CC(C)(C)c1cc(NC(=O)Nc2ccc(OCc3cccc(Cl)c3)cc2)no1 [Compound G11] | + + + + | – | + + + | + + + + | – | – | –
CC(C)(C)c1cc(NC(=O)Nc2ccc(OCc3ccccc3F)cc2)no1 [Compound G12, 1-(4-(2-fluorobenzyloxy)phenyl)-3-(5-tert-butylisoxazol-3-yl)urea] | + + + + | + + | + + + + | + + + + | – | – | –
CC(C)(C)c1cc(NC(=O)Nc2ccc(OCc3cccc(F)c3)cc2)no1 [Compound G14] | + + + + | – | + + + | + + + + | – | – | –
CC(C)(C)c1cc(NC(=O)Nc2ccc(OCc3cc(F)cc(F)c3)cc2)no1 [Compound G16] | + + + + | + + | + + + | + + + + | – | – | –
CC(C)(C)c1cc(NC(=O)Nc2ccc(OCCc3ccncc3)cc2)no1 [Compound G22] | + + + + | – | + + + + | + + + + | > 10 | – | –
CC(C)(C)c1cc(NC(=O)Nc2ccc(OCCc3ccccc3F)cc2)no1 [Compound G25] | + + + + | + + | + + + | + + + + | – | – | –
CC(C)(C)c1cc(NC(=O)Nc2ccc(OC/C=C/c3ccccc3Cl)cc2)no1 [Compound G26] | + + + + | + + | + + + + | + + + + | – | – | –
CC(C)(C)c1cc(NC(=O)Nc2ccc(OCc3ccccc3)cc2)no1 [Compound G31] | + + + + | – | + + + | + + + + | – | – | –
CC(C)(C)c1cc(NC(=O)Nc2ccc(OCc3ccc(Cl)cc3)cc2)no1 [Compound G34] | + + + + | – | + + + | + + + + | > 10 | – | –
CC(C)(C)c1cc(NC(=O)Nc2ccc(OCc3ccc(F)cc3)cc2)no1 [Compound G35] | + + + + | – | + + + | + + + + | > 10 | – | –
CC(C)(C)c1cc(NC(=O)Nc2ccc(OCC3CC3)cc2)no1 [Compound G37] | + + + + | + + | + + + | + + + + | – | – | –
CC(C)(C)c1cc(NC(=O)Nc2ccc(OCC3CCC3)cc2)no1 [Compound G39] | + + + + | + + | + + + | + + + + | – | – | –
CC(C)(C)c1cc(NC(=O)Nc2ccc(OCc3ccc(-c4ccccc4)cc3)cc2)no1 [Compound G56] | + + + + | – | + + + + | + + + + | – | – | –
Cn1nc(C(C)(C)C)cc1C(=O)Nc1ccc(NC(=O)Nc2cc(C(C)(C)C)on2)cc1 [Compound N10] | + + + | – | + + + | + + + + | – | – | –
CC(C)(C)c1cc(NC(=O)Nc2ccc(NC(=O)c3ccc(Cl)cc3)cc2)no1 [Compound N26] | + + | – | + + + | + + | – | – | –

Structure (SMILES) | Cell Assay: CS0001:IC50 (MV4,11 cells) | Cell Assay: CS0002:IC50 (CS0002) | Cell Assay: CS0005:IC50 (CS0005) | Binding Assay: FLT3(DKIN) (FLT3) | IC50 (CS0002) [µM] | IC50 (MV4,11 cells; Homo sapiens, MV4-11) [µM] | Binding Assay: FLT3(JMminus) (FLT3)
CC(C)(C)c1cc(NC(=O)Nc2ccc(NC(=O)c3ccc4ccccc4c3)cc2)no1 [Compound N28] | + + + + | – | + + + + | + + + + | – | – | –
CC(C)(C)c1cc(NC(=O)Nc2ccc(NC(=O)c3ccccc3)cc2)no1 [Compound N34] | + + + + | – | + + + + | + + + + | – | – | –
Cc1nc(-c2cccnc2)sc1C(=O)Nc1ccc(NC(=O)Nc2cc(C(C)C)on2)cc1 [Compound N48] | + + + + | + + | – | + + + + | – | – | –
COc1cc(OC)nc(Nc2cccc(C(=O)Nc3ccc(NC(=O)Nc4cc(C(C)(C)C)on4)cc3)c2)n1 [Compound N49] | + + + + | + + + | – | + + + + | – | – | –
COc1cc(OC)nc(N(C)c2cccc(C(=O)Nc3ccc(NC(=O)Nc4ccon4)cc3)c2)n1 [Compound N53] | + + + | + + | – | + + + + | – | – | –
CC(C)c1cc(NC(=O)Nc2ccc(NC(=O)C3CCN(c4ncc(C(F)(F)F)cc4Cl)CC3)cc2)no1 [Compound N59] | + + + + | – | – | + + + | > 10 | – | –
Cn1nc(C(F)(F)F)c2cc(C(=O)Nc3ccc(NC(=O)Nc4cc(C(C)(C)C)on4)cc3)sc21 [Compound N64] | + + + | – | – | + + + + | > 10 | – | –
Cn1nc(C(F)(F)F)c(C(=O)Nc2ccc(NC(=O)Nc3cc(C(C)(C)C)on3)cc2)c1Cl [Compound N68] | + + + | + + + | – | + + + + | – | – | –
CC(C)c1sc(Cl)nc1C(=O)Nc1ccc(NC(=O)Nc2cc(C(C)(C)C)on2)cc1 [Compound N75] | – | + + | – | – | – | > 10 | + + + +
CC(C)(C)c1cc(NC(=O)Nc2ccc(NC(=O)c3nocc3C(C)(C)C)cc2)no1 [Compound N82] | + + + | + + | – | – | – | – | + + +
CC(C)(C)c1cc(NC(=O)Nc2ccc(NC(=O)c3cc4ccccc4cn3)cc2)no1 [Compound N106] | – | – | + + + + | – | > 10 | – | –
CC(C)(C)c1cc(NC(=O)Nc2ccc(NC(=O)c3nccnc3C(N)=O)cc2)no1 [Compound N138] | + + | – | – | + + + + | > 10 | – | –
CCOC(=O)c1cccc(C(=O)Nc2ccc(NC(=O)Nc3cc(C(C)(C)C)on3)cc2)n1 [Compound N164] | + + + + | + + | – | – | – | – | + + + +
CC(C)(C)c1cc(NC(=O)Nc2ccc(NC(=O)c3cccnc3C(=O)O)cc2)no1 [Compound N165] | + + + + | – | – | – | > 10 | – | + + +
CC(C)(C)c1cc(NC(=O)Nc2ccc(NC(=O)c3ccc(Oc4ccnc(C(=O)O)c4)cc3)cc2)no1 [Compound N166] | + + + | + + | – | – | – | – | + + + +
Cc1ccc(-c2nc(C(=O)Nc3ccc(NC(=O)Nc4cc(C(C)(C)C)on4)cc3)cs2)cc1 [Compound N178] | + + + | + + | – | – | – | – | + + + +
Cc1nc(-c2ccccc2)sc1C(=O)Nc1ccc(NC(=O)Nc2cc(C(C)(C)C)on2)cc1 [Compound N181] | + + + + | + + | – | – | – | – | + + + +
Cc1nc(-c2ccc(Cl)cc2)sc1C(=O)Nc1ccc(NC(=O)Nc2cc(C(C)(C)C)on2)cc1 [Compound N184] | + + + + | + + | – | – | – | – | + + + +
CC(C)(C)c1cc(NC(=O)Nc2ccc(Nc3cc(N)nc(N)n3)cc2)no1 [Compound O7] | + + + + | – | – | – | > 10 | – | + + + +
COC(=O)c1cccc(Sc2ncc(NC(=O)Nc3cc(C(C)(C)C)on3)s2)c1 [Compound O8] | + + + | + + | – | – | – | – | + + + +
